Data set [1] deals with Human adipose tissue derived stem cells (hADSCs). The data set can be described thus: Cell viability by MTT assay in hADSCs. It is filed as cell-based. Conditions: 10 μM, % of control. Here is the method:
(§1) Human adipose tissue derived stem cells (hADSCs), which is derived from adipose tissue, were selected an maintained in a keratinocyte SFM medium (Gibco BRL, Gaithersburg, Md.) supplemented with 5% FBS, 100 U/ml of penicillin and streptomycin.
(§2) New synthetic compounds were dissolved in DMSO to a final concentration of 10 mM and stored at −20° C. The concentration used was 10 μM and freshly diluted to the medium with a final concentration of DMSO at 0.1%. Control cultures were treated with the same amount of DMSO as used in the corresponding experiments.
(§3) The MTT assay is a calorimetric assay based on the ability of the viable cells to reduce a soluble yellow tetrazolium salt to blue formazan crystals (Carmichael, J. et. el. Cancer Research 1987, 47, 936). After compound treatments, 350 μL of MTT solution ([…] in PBS) were added to each well and incubated for 4 hrs. DMSO was then added for another 0.5 hrs to thoroughly dissolve the dark blue crystals. The absorbance at 570 nm was measured with an ELISA reader. Inhibition of mitochondrial metabolism was shown as relative activity (% of control).

For data set [2] the test system is unchanged. The data set can be described thus: Cytotoxicity assay by lactate dehydrogenase (LDH) leakage in hADSCs. It is filed as cell-based. Conditions: 10 μM, % of total cell toxicity. The protocol: as §1, §2
Lactate dehydrogenase (LDH) leakage from cells was measured to quantify the cytotoxicity by using a cytotoxicity detection kit (Roche, Germany) (Crowston, J. G. et al Invest. Ophthalmol. Vis. Sci. 1998, 39, 449). Cells were previously seeded into 48-well plates (4×10^4 cells/well). After a drug treatment, the supernatants and cell layers of the cultures were collected for assay. According to the manufacturer's guidelines for the detection kit, cell layers were lysed with 1% TritonX-100, and cell lysates and supernatants were assayed in a 96-well plate, respectively. Briefly, 100 μL of catalyst solution was added in each assay well for 20 min. Absorbance was measured with an ELISA reader with a 490 nm filter. LDH leakage was shown as relative activity (% of total cell toxicity).

For data set [3] the test system is unchanged. The data set can be described thus: Osteogenic differentiation and quantification of mineralization (Alizarin red S) in hADSCs. The following applies: 10 μM. Format: cell-based. Here is the method:
as §1, §2
Osteogenic differentiation was induced by culturing cells in an osteo-induction medium (OIM, 10% FBS, 0.1 μM dexamethasone, 10 mM β-glycerophosphate, and L-Ascorbic 2 phosphate 100 μM in low glucose DMEM) for 7-14 days. The extracellular matrix calcification was estimated by using an Alizarin red S stain (Carl, A. et al Anal. Biochem. 2004, 329, 77). The Alizarin red S-stained mineral was quantified by the osteogenesis quantification kit (CHEMICON®).

The test system of data set [4] is MCF-7 cells (human breast adenocarcinoma). The data set can be described thus: Cytotoxicity assay (MTS reduction), MCF-7. Conditions: 3 days, % of DMSO control; for activity at 4 µg/mL / activity at 20 µg/mL: Homo sapiens, MCF7, 72 h, read-out: Growth percentage MCF7 (Breast). It is filed as cell-based. The protocol:
(§4) MCF-7 cells (human breast adenocarcinoma), NCI-H460 cells (non-small-cell lung cancer) and SF-268cells (glioblastoma cells) were cultured in a Dulbecco's modified Eagle's medium supplemented with a 10% fetal calf serum and a nonessential amino acid (Life Technologies, Inc.) and maintained at 37° C. in a humidified incubator with 5% CO2.
(§5) Human cancer cells were seeded in 96-well microtiter plates at a density of 6500, 2500 and 7500 cells/well in 100 μl of culture medium for MCF-7, NCI-H460, and SF-268, respectively. […] Cells were treated with test compounds for 3 days. Cell viability was determined by the 5-[3-(carboxymethoxy)-phenyl]-2-(4,5-dimethylthiazolyl)-3-(4-sulfophenyl)tetrazolium salt (MTS) reduction assay. Actinomycin D (10 μM, final concentration) and DMSO (0.1%, final concentration) were used as positive and vehicle controls, respectively. Results were expressed as a % of the DMSO control.
(Tetrazolium assays rely on reduction of a dye to a coloured formazan, in cell work by metabolically active cells.)

For data set [5], the system named is NCI-H460 cells (non-small-cell lung cancer). The data set can be described thus: Cytotoxicity assay (MTS reduction), NCI-H460. It is filed as cell-based, human. The following applies: 3 days, % of DMSO control; for activity at 4 µg/mL / activity at 20 µg/mL: Homo sapiens, NCI-H460, 72 h, read-out: Growth percentage NCI-H460 (Lung). Here is the method: as §4, §5

The test system of data set [6] is SF-268 cells (glioblastoma cells). The data set can be described thus: Cytotoxicity assay (MTS reduction), SF-268. Format: cell-based, human. The following applies: 3 days, % of DMSO control; for activity at 4 µg/mL / activity at 20 µg/mL: Homo sapiens, SF-268, 72 h, read-out: Growth percentage SF-268 (CNS). The protocol: as §4, §5
Data set [7] can be described thus: Cell viability by MTT assay in hADSCs. The following applies: human, human adipose tissue derived stem cells (hADSCs), % of control. It is filed as cell-based, human. Here is the method: as §1, §2, §3

Results on 3 molecules are retold here after patent US8138184B2, “Isoxazole derivatives and pharmaceutical compositions comprising the same” (Kaohsiung Medical University, priority 2008, dated 2012).

Consider “2-[4-(3,4-Dimethoxyphenyl)isoxazol-5-yl]-5-([6-(piperidin-1-yl)hexyloxy]phenol [8b]”, for which the “Cell viability (3 days, MTT)” value in data set [1] was 11%. The “Cell cytotoxicity (3 days, LDH)” value in data set [2] amounted to 41%. Also, the “Mineralization (10 days)” value in data set [3] (10 days) came to 285%. The “Growth percentage MCF7 (Breast)” value was 93% in data set [4] (4 μg/mL) and 4% in data set [4] (20 μg/mL). Besides, the “Growth percentage NCI-H460 (Lung)” value in data set [5] (4 μg/mL) came to 89%; in data set [5] (20 μg/mL) it was 2%. Also, the entries for the “Growth percentage SF-268 (CNS)” value in data set [6] (4 μg/mL) and in data set [6] (20 μg/mL) were 116% and 15%, respectively.

Broadly, the viability is the share of living cells, or the viability signal relative to a control. A low value points to a greater loss of cells. Consider `COc1ccc(-c2cnoc2-c2ccc(OC(C)C)cc2OCCCCN2CCCC2)cc1` [5a, 5-{4-Isopropoxy-2-[4-(pyrrolidin-1-yl)butoxy]phenyl}-4-(4-methoxyphenyl)isoxazole], for which, in data set [7], the viability at 3 days, 10 µM was found to be 71%. Further, the “Cell cytotoxicity (3 days, LDH)” value in data set [2] was determined as 0%. Further, in data set [3], the “osteoblast activity (mineralization in hADSCs), in words” value is listed as “more active than ipriflavone”. Further, the activity at 4 µg/mL amounted to 83% in data set [4] (4 μg/mL), 81% in data set [5] (4 μg/mL) and 121% in data set [6] (4 μg/mL). Also, the values for the activity at 20 µg/mL in data set [4] (20 μg/mL), in data set [5] (20 μg/mL) and in data set [6] (20 μg/mL) were 1%, 1% and 2%, respectively.

`COc1ccc(-c2cnoc2-c2ccc(OC(C)C)cc2OCCCCCCN2CCCC2)cc1` [5e, 5-{4-Isopropoxy-2-[6-(pyrrolidin-1-yl)hexyloxy]phenyl}-4-(4-methoxyphenyl)isoxazole] yielded a viability at 3 days, 10 µM in data set [7] of 64%. In addition, the “Cell cytotoxicity (3 days, LDH)” value in data set [2] was 0%. Also, the “osteoblast activity (mineralization in hADSCs), in words” value in data set [3] is reported as “more active than ipriflavone”. Further, the activity at 4 µg/mL came to 55% in data set [4] (4 μg/mL), 22% in data set [5] (4 μg/mL) and 38% in data set [6] (4 μg/mL). The activity at 20 µg/mL in data set [4] (20 μg/mL) amounted to 0%; in data set [5] (20 μg/mL), 1%; in data set [6] (20 μg/mL), 1%.
